Assay results: US7482338B2 (priority 2003, dated 2009)
pKd: −log10 of the molar value.

Target: α7 nAChR subtype (Rattus norvegicus, UniProt Q05941)
Type: binding
Settings: read-out: KD of radioligand (saturation curve, one site model)

Sequence of α7 nAChR subtype (Q05941 23-502 limits assumed): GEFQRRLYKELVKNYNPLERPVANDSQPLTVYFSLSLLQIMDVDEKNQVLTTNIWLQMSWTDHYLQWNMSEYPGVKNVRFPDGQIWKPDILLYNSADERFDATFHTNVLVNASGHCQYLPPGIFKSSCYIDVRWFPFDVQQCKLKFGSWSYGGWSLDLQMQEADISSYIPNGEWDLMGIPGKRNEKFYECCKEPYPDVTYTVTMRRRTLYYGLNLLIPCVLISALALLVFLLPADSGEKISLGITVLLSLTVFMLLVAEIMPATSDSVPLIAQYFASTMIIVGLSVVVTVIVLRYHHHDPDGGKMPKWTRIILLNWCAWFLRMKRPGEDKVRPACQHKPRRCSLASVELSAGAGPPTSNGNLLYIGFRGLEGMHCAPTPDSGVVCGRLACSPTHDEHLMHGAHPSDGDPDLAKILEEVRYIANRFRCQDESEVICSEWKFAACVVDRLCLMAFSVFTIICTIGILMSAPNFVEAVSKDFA

## [^125I]-α-Bungarotoxin [[^125I]-α-BTX]
  pKd: 8.78
